What was measured:
[1] = test system: wheat leaf blight fungus; assay: Test Example 3: growth of wheat leaf blight fungus in YBG medium, microtiter plate, absorbance at 550 nm; format: cell-based, Mycosphaerella graminicola; conditions: single use, 18° C., six days
Description: The present compound 1-1 or the present compound 2-1 was dissolved into dimethyl sulfoxide such that each concentration of the present compound 1-1 or the present compound 2-1 was adjusted to one hundred fifty times as much as the concentration indicated in the below-mentioned Table 5. The resultant agent solution was dispensed into a microtiter plate (with 96 wells) in 1 μl portion thereof per well. One hundred forty nine (149) μl of YBG medium. (which was prepared by dissolving 10 g of yeast extract, 10 g of Bacto Peptone, and 20 mL of glycerol into 1 L of water, followed by sterilizing the medium) was dispensed into the wells to which the agent solution(s) was/were dispensed. The plate was cultivated at 18° C. for six days, thereby allowing wheat leaf blight fungus to undergo proliferation, and the absorbance at 550 nm of each well of the micro titer plate was then measured to examine a degree of growth of the wheat leaf blight fungus (hereinafter referred to as “treated group”).
Whereas, wheat leaf blight fungus was proliferated similarly to the case of the treated group except that dimethyl sulfoxide was used instead of the agent solution, and the degree of the growth was examined (hereinafter referred to as “untreated group”). The efficacy was calculated from the respective obtained degree of growth by the below-mentioned “Equation 1”.
Efficacy (%)=100×(X−Y)/X Equation 1 […]

[2] = test system: wheat rust fungus (Puccinia recondita); assay: Test Example 4: foliar spray of flowable formulations on potted wheat, wheat rust lesion area; format: in vivo; conditions: wheat (cultivar. Shirogane), single use
Description: Five (5) parts of the present compound 1-1, 35 parts of a mixture of white carbon and ammonium polyoxyethylene alkyl ether sulfate (the weight ratio of 1:1) and […] of water were mixed, and the mixture was then finely-ground by a wet grinding method to obtain a flowable formulation comprising the present compound 1-1. Separately, the flowable formulation comprising the present compound 2-1 was prepared according to the above-mentioned similar method except that the present compound 2-1 was used instead of the present compound 1-1 to form a flowable formulation comprising the present compound 2-1.
Each of the above-mentioned respective flowable formulations, and the flowable formulation comprising the present compound 1-1 and the present compound 2-1 that was prepared according to the above-mentioned Formulation Example 3 was diluted with water such that each concentration of the respective compounds in the dilution solutions was adjusted to that indicated in Table 6, to prepare the dilution solutions, respectively.
A plastic pot was filled with soil, and thereto wheat (cultivar. Shirogane) was seeded, and the plants were grown in a greenhouse for ten days. […]
From each of the lesion area of the treated group and the untreated group, respectively, the efficacy of the treated group was calculated by the below-mentioned Equation 2. […]

Cc1nnc(Cl)c(-c2c(F)cccc2F)c1-c1ccccc1 [Present compound 1-1]
Efficacy (%) ([1]; concentration in medium 0.005 ppm): 4%
Efficacy (%) ([1]; concentration in medium 0.1 ppm): 75%
Efficacy (%) ([2]; concentration 0.0001 ppm): 20%
Efficacy (%) ([2]; concentration 0.01 ppm): 31%
